# Assay results as given in article PMC7035334, “Effects of SDS on the activity and conformation of protein tyrosine phosphatase from thermus thermophilus HB27” (Scientific Reports, 2020).
# Target: T1, PTPase from thermus thermophilus HB27 (Thermus thermophilus, UniProt Q72JF6)
# T1 construct: gene TT_C0816; recombinant, cloned into pET-28a(+), E. coli BL21(DE3), purified; LMW PTPase EC 3.1.3.48; P-loop CLGNICRS, residues Cys11, Cys16, Arg17, Asp123 (Tt1001)
# T1 sequence (Q72JF6 1-161): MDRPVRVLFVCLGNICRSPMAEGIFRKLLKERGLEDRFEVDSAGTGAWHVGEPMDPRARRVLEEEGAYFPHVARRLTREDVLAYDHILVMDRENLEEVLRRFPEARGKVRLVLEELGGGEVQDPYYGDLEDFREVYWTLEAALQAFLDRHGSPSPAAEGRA
# Assay: residual pNPP phosphatase activity, absorbance […] nm
# Type: biochemical
smiles,measurement,value
CCCCCCCCCCCCOS(=O)(=O)O [SDS],IC50,11.3 µM
